Experimental data: patent US20230085307A1, “PYRIDAZINONE COMPOUND AND HERBICIDE” (NISSAN CHEMICAL CORPORATION, priority 2019, published 2023)

Experiments:
velvetleaf [1] = assay: Test Example 5: herbicidal effect by foliage application, plastic box (Table 20, symbol M); format: in vivo, velvetleaf (Abutilon theophrasti); details: foliage application; for M: velvetleaf, herbicidal effect: AAH 320 g/ha, three weeks after application; for herbicidal effect on M: velvetleaf: 320 g/ha, evaluated three weeks after application
Procedure, shortened: (§1)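 Post-emergence foliar test in sterilized diluvial soil. Compound applied as water-diluted emulsion at a predetermined rate to 14-day-old plants; evaluation at three weeks.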

southern crabgrass [2] = assay: Test Example 5: herbicidal effect by foliage application, plastic box (Table 20, symbol F); format: in vivo, southern crabgrass (Digitaria ciliaris); details: foliage application; for F: southern crabgrass, herbicidal effect: AAH 320 g/ha, three weeks after application; for herbicidal effect on F: southern crabgrass: 320 g/ha, evaluated three weeks after application
Procedure, shortened: as §1

lambsquarters [3] = assay: Test Example 5: herbicidal effect by foliage application, plastic box (Table 20, symbol O); format: in vivo, lambsquarters (Chenopodium album); details: foliage application; for O: lambsquarters, herbicidal effect: AAH 320 g/ha, three weeks after application; for herbicidal effect on O: lambsquarters: 320 g/ha, evaluated three weeks after application
Procedure, shortened: as §1

windgrass = assay: Test Example 5: herbicidal effect by foliage application, plastic box (Table 20, symbol L); format: in vivo, windgrass (Apera spica-venti); details: foliage application; for L: windgrass, herbicidal effect: AAH 320 g/ha, three weeks after application; for herbicidal effect on L: windgrass: 320 g/ha, evaluated three weeks after application
Procedure, shortened: as §1

persian speedwell [4] = assay: Test Example 5: herbicidal effect by foliage application, plastic box (Table 20, symbol R); format: in vivo, Persian speedwell (Veronica persica); details: foliage application; for R: persian speedwell, herbicidal effect: AAH 320 g/ha, three weeks after application; for herbicidal effect on R: persian speedwell: 320 g/ha, evaluated three weeks after application
Procedure, shortened: as §1

chickweed [5] = assay: Test Example 5: herbicidal effect by foliage application, plastic box (Table 20, symbol P); format: in vivo, common chickweed (Stellaria media); details: foliage application; for P: chickweed, herbicidal effect: AAH 320 g/ha, three weeks after application; for herbicidal effect on P: chickweed: 320 g/ha, evaluated three weeks after application
Procedure, shortened: as §1

chickweed [6] = assay: Test Example 4: herbicidal effect by soil treatment (Table 19, symbol P); format: in vivo, common chickweed (Stellaria media); details: for P: chickweed, herbicidal effect rating: AAH 320 g/ha; for herbicidal effect rating, P: chickweed: 320 g/ha
Procedure, shortened: (§2)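 Emulsion of test compound, water-diluted to predetermined amount, sprayed on soil after sowing (seed depth ~1.5 cm, sterilized diluvial soil). Greenhouse, 25–30° C. Effect graded at three weeks post-spray.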

Japanese bulrush = assay: Test Example 2: herbicidal activity, application during weed generation under submerged conditions (Table 17, symbol B); format: in vivo, Japanese bulrush (Schoenoplectus juncoides); details: AAH 320 g/ha; application during weed generation, submerged conditions
Procedure, shortened: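 Herbicide emulsion, diluted with water to the chosen amount, is applied onto 4 cm floodwater over alluvial soil where the weeds were co-sown and raised at 25–30° C. Application timing: 1–2 leaves. Assessment: three weeks afterwards.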

persian speedwell [7] = assay: Test Example 4: herbicidal effect by soil treatment (Table 19, symbol R); format: in vivo, Persian speedwell (Veronica persica); details: for R: persian speedwell, herbicidal effect rating: AAH 320 g/ha; for herbicidal effect rating, R: persian speedwell: 320 g/ha
Procedure, shortened: as §2

wild oat = assay: Test Example 4: herbicidal effect by soil treatment (Table 19, symbol I); format: in vivo, wild oat (Avena fatua); details: for I: wild oat, herbicidal effect rating: AAH 320 g/ha; for herbicidal effect rating, I: wild oat: 320 g/ha
Procedure, shortened: as §2

southern crabgrass [8] = assay: Test Example 4: herbicidal effect by soil treatment (Table 19, symbol F); format: in vivo, southern crabgrass (Digitaria ciliaris); details: for F: southern crabgrass, herbicidal effect rating: AAH 320 g/ha; for herbicidal effect rating, F: southern crabgrass: 320 g/ha
Procedure, shortened: as §2

velvetleaf [9] = assay: Test Example 4: herbicidal effect by soil treatment (Table 19, symbol M); format: in vivo, velvetleaf (Abutilon theophrasti); details: for M: velvetleaf, herbicidal effect rating: AAH 320 g/ha; for herbicidal effect rating, M: velvetleaf: 320 g/ha
Procedure, shortened: as §2

green foxtail = assay: Test Example 4: herbicidal effect by soil treatment (Table 19, symbol G); format: in vivo, green foxtail (Setaria viridis); details: for G: green foxtail, herbicidal effect rating: AAH 320 g/ha; for herbicidal effect rating, G: green foxtail: 320 g/ha
Procedure, shortened: as §2

blackgrass = assay: Test Example 4: herbicidal effect by soil treatment (Table 19, symbol J); format: in vivo, blackgrass (Alopecurus myosuroides); details: for J: blackgrass, herbicidal effect rating: AAH 320 g/ha; for herbicidal effect rating, J: blackgrass: 320 g/ha
Procedure, shortened: as §2

barnyard grass = assay: Test Example 4: herbicidal effect by soil treatment (Table 19, symbol H); format: in vivo, barnyard grass (Echinochloa crus-galli); details: for H: barnyard grass, herbicidal effect rating: AAH 320 g/ha; for herbicidal effect rating, H: barnyard grass: 320 g/ha
Procedure, shortened: as §2

oval-leafed pondweed = assay: Test Example 1: herbicidal activity, application before weed generation under submerged conditions (Table 16, symbol C); format: in vivo, oval-leafed pondweed (Monochoria vaginalis); details: 320 g/ha applied herbicide
Procedure, shortened: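 Alluvial soil was flooded to 4 cm depth, weed seeds were sown mixed and 2.5-leaf rice seedlings were transplanted. On sowing day, the compound's emulsion, diluted in water to a set dose, was applied to the water surface. Plants grew at 25–30 °C and were scored 0–5 after three weeks.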

lambsquarters [10] = assay: Test Example 4: herbicidal effect by soil treatment (Table 19, symbol O); format: in vivo, lambsquarters (Chenopodium album); details: for O: lambsquarters, herbicidal effect rating: AAH 320 g/ha; for herbicidal effect rating, O: lambsquarters: 320 g/ha
Procedure, shortened: as §2

Structure (SMILES)	M: velvetleaf, herbicidal effect (velvetleaf [1])	F: southern crabgrass, herbicidal effect (southern crabgrass [2])	O: lambsquarters, herbicidal effect (lambsquarters [3])	herbicidal effect rating, B: Japanese bulrush (Japanese bulrush)	Herbicidal effect on C: oval-leafed pondweed (grade 0-5) (oval-leafed pondweed)	herbicidal effect on M: velvetleaf (velvetleaf [1])	herbicidal effect on F: southern crabgrass (southern crabgrass [2])	herbicidal effect on O: lambsquarters (lambsquarters [3])	herbicidal effect on L: windgrass (windgrass)	herbicidal effect on R: persian speedwell (persian speedwell [4])	herbicidal effect on P: chickweed (chickweed [5])	herbicidal effect rating, P: chickweed (chickweed [6])	herbicidal effect rating, R: persian speedwell (persian speedwell [7])	herbicidal effect rating, I: wild oat (wild oat)	herbicidal effect rating, F: southern crabgrass (southern crabgrass [8])	herbicidal effect rating, M: velvetleaf (velvetleaf [9])	herbicidal effect rating, G: green foxtail (green foxtail)	herbicidal effect rating, J: blackgrass (blackgrass)	herbicidal effect rating, H: barnyard grass (barnyard grass)	herbicidal effect rating, O: lambsquarters (lambsquarters [10])	also measured
Cc1nn(C)c(=O)c(-c2c(-c3ccc([N+](=O)[O-])cc3)sc3ccccc23)c1O [1-151]	5 (Herbicidal rate of 90% or more (almost completely withered))	4 (Herbicidal rate of 70% or more and less than 90%)	5 (Herbicidal rate of 90% or more (almost completely withered))	2 (Herbicidal rate of 20% or more and less than 40%)	3 (Herbicidal rate of 40% or more and less than 70%)																L: windgrass, herbicidal effect (windgrass): 0 (Herbicidal rate of 5% or less (almost no effect)); R: persian speedwell, herbicidal effect (persian speedwell [4]): 5 (Herbicidal rate of 90% or more (almost completely withered)); P: chickweed, herbicidal effect (chickweed [5]): 5 (Herbicidal rate of 90% or more (almost completely withered)); P: chickweed, herbicidal effect rating (chickweed [6]): 0 (Herbicidal rate of 5% or less (almost no effect)); R: persian speedwell, herbicidal effect rating (persian speedwell [7]): 5 (Herbicidal rate of 90% or more (almost completely withered)); I: wild oat, herbicidal effect rating (wild oat): 0 (Herbicidal rate of 5% or less (almost no effect)); F: southern crabgrass, herbicidal effect rating (southern crabgrass [8]): 0 (Herbicidal rate of 5% or less (almost no effect)); M: velvetleaf, herbicidal effect rating (velvetleaf [9]): 0 (Herbicidal rate of 5% or less (almost no effect)); G: green foxtail, herbicidal effect rating (green foxtail): 0 (Herbicidal rate of 5% or less (almost no effect)); J: blackgrass, herbicidal effect rating (blackgrass): 0 (Herbicidal rate of 5% or less (almost no effect)); H: barnyard grass, herbicidal effect rating (barnyard grass): 0 (Herbicidal rate of 5% or less (almost no effect)); O: lambsquarters, herbicidal effect rating (lambsquarters [10]): 2 (Herbicidal rate of 20% or more and less than 40%)
CCCC(=O)Oc1c(C)nn(C)c(=O)c1-c1c(-c2ccc([N+](=O)[O-])cc2)sc2ccccc12 [1-152]	5 (Herbicidal rate of 90% or more (almost completely withered))	4 (Herbicidal rate of 70% or more and less than 90%)	4 (Herbicidal rate of 70% or more and less than 90%)	3 (Herbicidal rate of 40% or more and less than 70%)	5 (Herbicidal rate of 90% or more (almost completely withered))																L: windgrass, herbicidal effect (windgrass): 0 (Herbicidal rate of 5% or less (almost no effect)); R: persian speedwell, herbicidal effect (persian speedwell [4]): 5 (Herbicidal rate of 90% or more (almost completely withered)); P: chickweed, herbicidal effect (chickweed [5]): 5 (Herbicidal rate of 90% or more (almost completely withered)); P: chickweed, herbicidal effect rating (chickweed [6]): 3 (Herbicidal rate of 40% or more and less than 70%); R: persian speedwell, herbicidal effect rating (persian speedwell [7]): 3 (Herbicidal rate of 40% or more and less than 70%); I: wild oat, herbicidal effect rating (wild oat): 0 (Herbicidal rate of 5% or less (almost no effect)); F: southern crabgrass, herbicidal effect rating (southern crabgrass [8]): 1 (Herbicidal rate of 5% or more and less than 20%); M: velvetleaf, herbicidal effect rating (velvetleaf [9]): 0 (Herbicidal rate of 5% or less (almost no effect)); G: green foxtail, herbicidal effect rating (green foxtail): 2 (Herbicidal rate of 20% or more and less than 40%); J: blackgrass, herbicidal effect rating (blackgrass): 0 (Herbicidal rate of 5% or less (almost no effect)); H: barnyard grass, herbicidal effect rating (barnyard grass): 3 (Herbicidal rate of 40% or more and less than 70%); O: lambsquarters, herbicidal effect rating (lambsquarters [10]): 0 (Herbicidal rate of 5% or less (almost no effect))
COCCOc1ccc(-c2sc3ccc(F)cc3c2-c2c(O)c(C)nn(C)c2=O)cc1 [2-056]				3 (Herbicidal rate of 40% or more and less than 70%)	5 (Herbicidal rate of 90% or more (almost completely withered))	5 (Herbicidal rate of 90% or more (almost completely withered))	5 (Herbicidal rate of 90% or more (almost completely withered))	5 (Herbicidal rate of 90% or more (almost completely withered))	4 (Herbicidal rate of 70% or more and less than 90%)	5 (Herbicidal rate of 90% or more (almost completely withered))	5 (Herbicidal rate of 90% or more (almost completely withered))	5 (Herbicidal rate of 90% or more (almost completely withered))	5 (Herbicidal rate of 90% or more (almost completely withered))	0 (Herbicidal rate of 5% or less (almost no effect))	5 (Herbicidal rate of 90% or more (almost completely withered))	5 (Herbicidal rate of 90% or more (almost completely withered))	5 (Herbicidal rate of 90% or more (almost completely withered))	0 (Herbicidal rate of 5% or less (almost no effect))	5 (Herbicidal rate of 90% or more (almost completely withered))	5 (Herbicidal rate of 90% or more (almost completely withered))	
Cc1nn(C)c(=O)c(-c2c(-c3ccc(OCC4CC4)cc3)sc3ccc(F)cc23)c1O [2-060]				3 (Herbicidal rate of 40% or more and less than 70%)	4 (Herbicidal rate of 70% or more and less than 90%)	4 (Herbicidal rate of 70% or more and less than 90%)	4 (Herbicidal rate of 70% or more and less than 90%)	4 (Herbicidal rate of 70% or more and less than 90%)	4 (Herbicidal rate of 70% or more and less than 90%)	5 (Herbicidal rate of 90% or more (almost completely withered))	5 (Herbicidal rate of 90% or more (almost completely withered))	1 (Herbicidal rate of 5% or more and less than 20%)	5 (Herbicidal rate of 90% or more (almost completely withered))	0 (Herbicidal rate of 5% or less (almost no effect))	3 (Herbicidal rate of 40% or more and less than 70%)	0 (Herbicidal rate of 5% or less (almost no effect))	1 (Herbicidal rate of 5% or more and less than 20%)	0 (Herbicidal rate of 5% or less (almost no effect))	3 (Herbicidal rate of 40% or more and less than 70%)	4 (Herbicidal rate of 70% or more and less than 90%)	
Cc1nn(C)c(=O)c(-c2c(-c3ccc(OCc4ccccc4)cc3)sc3ccc(F)cc23)c1O [2-062]				3 (Herbicidal rate of 40% or more and less than 70%)	3 (Herbicidal rate of 40% or more and less than 70%)	3 (Herbicidal rate of 40% or more and less than 70%)	3 (Herbicidal rate of 40% or more and less than 70%)	5 (Herbicidal rate of 90% or more (almost completely withered))	4 (Herbicidal rate of 70% or more and less than 90%)	5 (Herbicidal rate of 90% or more (almost completely withered))	5 (Herbicidal rate of 90% or more (almost completely withered))	0 (Herbicidal rate of 5% or less (almost no effect))	3 (Herbicidal rate of 40% or more and less than 70%)	0 (Herbicidal rate of 5% or less (almost no effect))	1 (Herbicidal rate of 5% or more and less than 20%)	1 (Herbicidal rate of 5% or more and less than 20%)	3 (Herbicidal rate of 40% or more and less than 70%)	0 (Herbicidal rate of 5% or less (almost no effect))	0 (Herbicidal rate of 5% or less (almost no effect))	3 (Herbicidal rate of 40% or more and less than 70%)	
